Experimental data: publication PMC7391726, “Fatty acid mimetic PBI-4547 restores metabolic homeostasis via GPR84 in mice with non-alcoholic fatty liver disease” (Scientific Reports, 2020)
Like-named read-outs stand apart in the source and are kept apart here.

Columns and labels:
[1] = test system: ob/ob mice; assay: ob/ob leptin-deficient genetic mouse model of metabolic syndrome; type: in vivo
From the text: We next sought to confirm our above findings obtained from the diet-induced model of obesity by using the ob/ob leptin-deficient genetic mouse model of metabolic syndrome. […] Additionally, the mRNA expression profiles of glucose- and FA-related genes in liver (Fig. S4D,E) and WAT (Fig. S5) also differed between pioglitazone- and PBI-4547-treated mice.

[2] = target: T1, GPR40 (Homo sapiens, UniProt O14842); design: method as in PMID 29454750; conditions: previously reported, cited from earlier work
T1 construct: expressed in transfected cells; host or cells: HEK293

[3] = target: T2, GPR84 (Homo sapiens, UniProt Q9NQS5); assay: BRET Gαi2 activation biosensor in HEK293 cells transfected with GPR84; type: cell-based; conditions: compound alone vs vehicle
T2 construct: expressed in transfected cells; host or cells: HEK293
From the text: PBI-4547 (2-[3,5-dipentylphenyl]acetate sodium salt) is a medium-chain FA (MCFA) mimetic (Fig. 1A). Accordingly, we examined the signaling properties of PBI-4547 on receptors known to be activated by MCFAs. […] This biosensor consisted of an Rluc8-tagged Gαi2 subunit, a GFP10-tagged Gγ2 subunit, and an untagged Gβ1. Agonist stimulation and receptor activation triggers a physical separation between the Gα-Rluc8 donor and the GFP10-Gγ2 acceptor, resulting in a decrease in BRET signal, whose amplitude is correlated to ligand efficacy. […] (A) Chemical structure of PBI-4547. (B) Gi pathway activation was monitored in HEK293 cells transfected with GPR84 and the Gαi2 activation biosensor. […] (C) β-arrestin 2 recruitment to activated GPR120 receptor was monitored in HEK293 cells transfected with RLuc8-β-arrestin 2 and GPR120-GFP10. (D) Cells transfected with GPR40 and Gαq or Gαi2 activation biosensor were exposed to increasing concentrations of PBI-4547 or to 500 µM of sodium decanoate, and BRET variation compared with vehicle was measured. Cells were exposed to increasing concentrations of PBI-4547 or to 100 µM of GW9508, and BRET variation compared with vehicle was measured. (E) LanthaScreen TR-FRET competitive binding assay of PBI-4547 and PPAR control agonists to the LBD of PPARα, PPARδ and PPARγ. (F) Cell-based GAL4 transactivation assay in HEK293 cells transfected with the LBD of PPARα, PPARδ or PPARγ, and treated with increasing concentrations of PBI-4547 or PPAR control agonists. Data in (B–D) are expressed as means ± SEM of 4–5 experiments; data in (E,F) are from a representative experiment from a total of 3 to 4 independent experiments. BRET measurements in transiently transfected HEK293 cells were performed as previously described. Ligands were incubated with cells at room temperature for 10 min (G protein biosensors) or 25 min (β-arrestin/GPR120) before collecting BRET[2] readings between Rluc8 and GFP10.

T1 sequence (O14842 whole entry, species assumed): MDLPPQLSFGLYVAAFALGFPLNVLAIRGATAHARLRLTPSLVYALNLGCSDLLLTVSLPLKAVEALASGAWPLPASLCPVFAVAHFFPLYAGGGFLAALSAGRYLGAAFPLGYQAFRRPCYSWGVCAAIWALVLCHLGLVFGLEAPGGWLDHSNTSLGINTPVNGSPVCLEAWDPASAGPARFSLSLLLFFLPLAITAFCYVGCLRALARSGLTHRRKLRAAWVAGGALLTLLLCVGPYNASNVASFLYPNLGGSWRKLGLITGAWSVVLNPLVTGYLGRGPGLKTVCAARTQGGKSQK
T2 sequence (Q9NQS5 whole entry, species assumed): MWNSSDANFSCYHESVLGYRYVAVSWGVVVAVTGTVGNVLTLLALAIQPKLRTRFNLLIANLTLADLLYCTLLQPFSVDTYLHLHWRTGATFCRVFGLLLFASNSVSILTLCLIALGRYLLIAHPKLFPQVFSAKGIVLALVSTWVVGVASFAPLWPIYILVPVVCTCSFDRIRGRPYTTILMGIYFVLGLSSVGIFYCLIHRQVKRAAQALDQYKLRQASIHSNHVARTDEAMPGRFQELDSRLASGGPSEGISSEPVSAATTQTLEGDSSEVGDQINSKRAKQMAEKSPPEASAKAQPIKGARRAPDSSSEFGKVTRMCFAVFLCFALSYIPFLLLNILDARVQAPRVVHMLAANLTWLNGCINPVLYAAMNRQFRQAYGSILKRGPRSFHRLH

GPR84/Gαi2-mediated BRET signal modulation (agonist mode) [3] | SMILES | bodyweight [1] | EC50 ([2]; Gαi2, read-out: EC50, GPR40 Gαi2) | EC50 ([2]; Gαq, read-out: EC50, GPR40 Gαq)
 | CCc1ccc(CCOc2ccc(CC3SC(=O)NC3=O)cc2)nc1 (stereo not shown) [pioglitazone, reference compound] | increased trend towards weight gain |  | 
induced a BRET signal decrease | CCCCCCCCCC(=O)[O-].[Na+] [sodium decanoate] |  | 16 µM | 102 µM
